Where “and” joins values, the source holds several entries; their conditions need not be identical. Equal values may be shown once. Inconclusive results and toxic doses are left out. Rule as the data show it: active = T/C of 150% or more; inactive = T/C below 125%.
Tested on: L1210 leukemia ip in BDF1 mice, survival T/C
Test: NCI In Vivo Anticancer Drug Screen. Data for tumor model L1210 Leukemia (intraperitoneal) in B6D2F1 (BDF1) mice
Settings: endpoint: mean survival time, higher = longer survival
Procedure, shortened: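 Survival endpoint. Drug-treated group vs vehicle group, expressed as T divided by C. Tumor passaged by transplantation.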

[1] = dose: 100.0 mg/kg/injection, schedule: Q01DX001 (ip), vehicle: saline with Tween-80
[2] = dose: 100.0 mg/kg/injection, schedule: Q04DX003 (ip), vehicle: saline with Tween-80
[3] = dose: 200.0 mg/kg/injection, schedule: Q01DX001 (ip), vehicle: saline with Tween-80
[4] = dose: 200.0 mg/kg/injection, schedule: Q04DX003 (ip), vehicle: saline with Tween-80
[5] = dose: 400.0 mg/kg/injection, schedule: Q01DX001 (ip), vehicle: saline with Tween-80
[6] = dose: 100.0 mg/kg/injection, schedule: Q01DX009 (ip), vehicle: Klucel (hydroxypropylcellulose) (HPC)
[7] = dose: 100.0 mg/kg/injection, schedule: Q04DX003 (ip), vehicle: Klucel (hydroxypropylcellulose) (HPC)
[8] = dose: 200.0 mg/kg/injection, schedule: Q01DX009 (ip), vehicle: Klucel (hydroxypropylcellulose) (HPC)
[9] = dose: 200.0 mg/kg/injection, schedule: Q04DX003 (ip), vehicle: Klucel (hydroxypropylcellulose) (HPC)
[10] = dose: 400.0 mg/kg/injection, schedule: Q01DX009 (ip), vehicle: Klucel (hydroxypropylcellulose) (HPC)
[11] = dose: 400.0 mg/kg/injection, schedule: Q04DX003 (ip), vehicle: Klucel (hydroxypropylcellulose) (HPC)
[12] = dose: 100.0 mg/kg/injection, schedule: Q04DX003 (ip), vehicle: saline
[13] = dose: 200.0 mg/kg/injection, schedule: Q04DX003 (ip), vehicle: saline
[14] = dose: 400.0 mg/kg/injection, schedule: Q04DX003 (ip), vehicle: saline
[15] = dose: 100.0 mg/kg/injection, schedule: Q01DX001 (ip), vehicle: saline
[16] = dose: 200.0 mg/kg/injection, schedule: Q01DX001 (ip), vehicle: saline
[17] = dose: 400.0 mg/kg/injection, schedule: Q01DX001 (ip), vehicle: saline
[18] = dose: 50.0 mg/kg/injection, schedule: Q01DX009 (ip), vehicle: saline with Tween-80
[19] = dose: 100.0 mg/kg/injection, schedule: Q01DX009 (ip), vehicle: saline with Tween-80
[20] = dose: 200.0 mg/kg/injection, schedule: Q01DX009 (ip), vehicle: saline with Tween-80
[21] = dose: 25.0 mg/kg/injection, schedule: Q04DX003 (ip), vehicle: saline
[22] = dose: 50.0 mg/kg/injection, schedule: Q04DX003 (ip), vehicle: saline

Measured: T/C

CCCCSc1nc2ccccc2[nH]1
inactive: [1] 93 % of control | [2] 93 % of control | [3] 104 % of control | [4] 97 % of control | [5] 104 % of control | dose: 400.0 mg/kg/injection, schedule: Q04DX003 (ip), vehicle: saline with Tween-80 100 % of control

CC(=O)OC1CCCCC1c1cccc(C)c1 (stereo not given)
inactive: dose: 100.0 mg/kg/injection, schedule: Q04DX003 (ip), vehicle: acetone 110 % of control | dose: 200.0 mg/kg/injection, schedule: Q04DX003 (ip), vehicle: acetone 102 % of control | dose: 400.0 mg/kg/injection, schedule: Q04DX003 (ip), vehicle: acetone 98 % of control

ClC(c1ccccc1)C1(Cl)C=c2ccccc2=C1 (stereo not given)
inactive: [6] 98 % of control | [7] 102 % of control | [8] 98 % of control | [9] 92 % of control | [10] 95 % of control | [11] 96 % of control

O=C1CN(Br)C(=O)N1Br
inactive: dose: 100.0 mg/kg/injection, schedule: Q01DX009 (ip), vehicle: saline 105 % of control | [12] 98 % of control | dose: 200.0 mg/kg/injection, schedule: Q01DX009 (ip), vehicle: saline 107 % of control | [13] 105 % of control | [14] 100 % of control

O=C1CC(N2C(=O)C3C4C=CC(CC4)C3C2=O)C(=O)N1 (stereo not given)
inactive: [12] 97 % of control | [13] 97 % of control | [14] 97 % of control

CN1C(=O)CC[n+]2ccccc21
inactive: [12] 101 % of control | [13] 104 % of control | [14] 86 % of control

CCOC(=O)NC(CC)NC(=O)OCC
inactive: [15] 101 % of control | [16] 103 % of control | [17] 97 % of control

O=C1/C(=C\c2ccccc2)Oc2cc(O)c(O)cc21
inactive: [1] 98 % of control

O=C1C(N2CCOCC2)=Cc2cccc3cccc1c23
inactive: [18] 103 % of control | [19] 97 % of control | [2] 92 % of control | [20] 97 % of control and 90 % of control | [4] 97 % of control

Cn1c2c(c3ccccc31)CC(C(C)(C)C)CC2 (stereo not given)
inactive: dose: 50.0 mg/kg/injection, schedule: Q04DX002 (ip), vehicle: saline with Tween-80 107 % of control | dose: 100.0 mg/kg/injection, schedule: Q04DX002 (ip), vehicle: saline with Tween-80 100 % of control | dose: 200.0 mg/kg/injection, schedule: Q04DX002 (ip), vehicle: saline with Tween-80 97 % of control

CCOC(=O)C1C(O)=C(P(=O)(C2=C(O)C(C(=O)OCC)C(c3ccc(OC(C)=O)cc3)C(C(=O)O)C2=O)N(CCCl)CCCl)C(=O)C(C(=O)O)C1c1ccc(OC(C)=O)cc1 (stereo not given)
inactive: [6] 97 % of control | [7] 98 % of control | [8] 102 % of control | [9] 98 % of control | [10] 102 % of control | [11] 108 % of control

CCCCNC(=O)n1ncc2cc([N+](=O)[O-])c([N+](=O)[O-])cc21
inactive: [15] 103 % of control | [16] 97 % of control | [17] 101 % of control

CC(C)(C)c1ccc(OCCO)cc1
inactive: dose: 25.0 mg/kg/injection, schedule: Q01DX009 (ip), vehicle: other 102 % of control | dose: 50.0 mg/kg/injection, schedule: Q01DX009 (ip), vehicle: other 96 % of control | dose: 100.0 mg/kg/injection, schedule: Q01DX009 (ip), vehicle: other 95 % of control

Cc1ccncc1C1CCCN1C (stereo not given)
inactive: [21] 94 % of control | [22] 102 % of control | [12] 94 % of control

Cc1cc(Cl)nc(Nc2nc3cc(Cl)c(Cl)cc3[nH]2)n1
inactive: dose: 12.5 mg/kg/injection, schedule: Q01DX009 (ip), vehicle: acetone 87 % of control and 92 % of control | dose: 12.5 mg/kg/injection, schedule: Q04DX003 (ip), vehicle: saline 95 % of control and 112 % of control | dose: 25.0 mg/kg/injection, schedule: Q01DX009 (ip), vehicle: acetone 87 % of control | [21] 94 % of control and 95 % of control | dose: 50.0 mg/kg/injection, schedule: Q01DX009 (ip), vehicle: acetone 88 % of control | [22] 94 % of control and 101 % of control | [15] 91 % of control | [16] 93 % of control | [17] 91 % of control

CCCCCCCC#N
inactive: [1] 92 % of control | [3] 97 % of control | [5] 105 % of control

COc1cc(/C=N/NC(C)=O)ccc1O
inactive: [18] 97 % of control | [19] 94 % of control | [20] 110 % of control

CCOC(=O)Nc1ccc(OC(=O)Oc2ccc(NC(=O)OCC)cc2)cc1
inactive: [15] 97 % of control | [16] 97 % of control | [17] 86 % of control

CCN(CC)C(=O)Nc1cccc(N)c1
inactive: dose: 100.0 mg/kg/injection, schedule: Q04DX002 (ip), vehicle: Klucel (hydroxypropylcellulose) (HPC) 97 % of control | dose: 200.0 mg/kg/injection, schedule: Q04DX002 (ip), vehicle: Klucel (hydroxypropylcellulose) (HPC) 101 % of control | dose: 400.0 mg/kg/injection, schedule: Q04DX002 (ip), vehicle: Klucel (hydroxypropylcellulose) (HPC) 97 % of control

O=C(NCCO)c1ccc(Br)cc1
inactive: [18] 97 % of control | [19] 97 % of control | [20] 90 % of control

CC1CN(C(=O)Nc2ccc(Cl)cc2)CC(C)O1 (stereo not given)
inactive: [6] 100 % of control | [7] 100 % of control | [8] 101 % of control | [9] 89 % of control | [10] 113 % of control | [11] 97 % of control

Cc1cc(Br)c(O)c(Br)c1
inactive: dose: 75.0 mg/kg/injection, schedule: Q01DX001 (ip), vehicle: Klucel (hydroxypropylcellulose) (HPC) 99 % of control | dose: 150.0 mg/kg/injection, schedule: Q01DX001 (ip), vehicle: Klucel (hydroxypropylcellulose) (HPC) 100 % of control | dose: 300.0 mg/kg/injection, schedule: Q01DX001 (ip), vehicle: Klucel (hydroxypropylcellulose) (HPC) 95 % of control

O=C(CSCc1ccc([N+](=O)[O-])cc1)c1ccc(Br)cc1
inactive: [15] 92 % of control | [16] 95 % of control | [17] 92 % of control

O=C1c2ccccc2C(=O)N1CNc1ccc(Cc2ccc(NCN3C(=O)c4ccccc4C3=O)c(Cl)c2)cc1Cl
inactive: [19] 92 % of control | [12] 101 % of control | [20] 92 % of control | [13] 96 % of control | dose: 400.0 mg/kg/injection, schedule: Q01DX009 (ip), vehicle: saline with Tween-80 92 % of control | [14] 96 % of control

Cc1cc(C)n(/N=C/c2ccc(N(C)C)cc2)c(=O)c1C#N
inactive: [12] 95 % of control | [13] 95 % of control | [14] 95 % of control

Nc1ccc(S(=O)(=O)c2cc(O)ccc2O)cc1
inactive: dose: 100.0 mg/kg/injection, schedule: Q01DX001 (ip), vehicle: carboxymethylcellulose (CMC) 101 % of control | dose: 200.0 mg/kg/injection, schedule: Q01DX001 (ip), vehicle: carboxymethylcellulose (CMC) 100 % of control | dose: 400.0 mg/kg/injection, schedule: Q01DX001 (ip), vehicle: carboxymethylcellulose (CMC) 97 % of control

Nc1cccnc1
inactive: dose: 5.0 mg/kg/injection, schedule: Q01DX009 (ip), vehicle: saline 104 % of control | dose: 10.0 mg/kg/injection, schedule: Q01DX009 (ip), vehicle: saline 95 % of control | dose: 20.0 mg/kg/injection, schedule: Q01DX009 (ip), vehicle: saline 98 % of control

CNC(=S)Nc1ccccc1
inactive: dose: 100.0 mg/kg/injection, schedule: Q04DX003 (ip), vehicle: carboxymethylcellulose (CMC) 95 % of control | dose: 200.0 mg/kg/injection, schedule: Q04DX003 (ip), vehicle: carboxymethylcellulose (CMC) 96 % of control

CCCCCCCNC(=O)Nc1ccc(Cl)c(Cl)c1
inactive: [15] 95 % of control | [16] 90 % of control | [17] 97 % of control

CC(C)(C)C(=O)CC(=O)C(C)(C)C.CC(C)(C)C(=O)CC(=O)C(C)(C)C.CC(C)(C)C(=O)CC(=O)C(C)(C)C.[Al]
inactive: [6] 91 % of control | [7] 91 % of control | [8] 94 % of control | [9] 94 % of control | [10] 97 % of control | [11] 95 % of control

— PubChem BioAssay AID248 (DTP/NCI, 2004)
